# Read-outs that look alike come from different tables or passages of the source.
# How the values were obtained:
# NeNaC8 = test system: T1, NeNaC8; assay: two-electrode voltage clamp, Xenopus oocytes; assay type: cell-based, Nematostella vectensis; conditions: -70 mV, read-out: Apparent IC50
# T1 construct: full length, homomeric in Xenopus laevis oocytes (pRSSP vector, cRNA)
# NeNaC2 = test system: T2, NeNaC2; assay: two-electrode voltage clamp, Xenopus oocytes; assay type: cell-based, Nematostella vectensis; conditions: channel activated with pH 6.0, -70 mV
# T2 construct: full length, homomeric in Xenopus laevis oocytes (pRSSP vector, cRNA); residues H141 and G516 (DEG position)
"IC50 (NeNaC8; 1.8 mM Ca2+ (standard bath), pH 7.4, not competitive with Ca2+, n = 14) [µM]","IC50 (NeNaC2; complete inhibition at high concentrations, n = 14) [µM]",Compound,"IC50 (NeNaC8; channel opened by bath with 100 nM Ca2+, n = 11) [µM]","IC50 (NeNaC2; inhibition incomplete even at high concentrations, n = 10) [µM]"
0.124 ± 0.075,2.4 ± 0.9,N=C(N)c1ccc(N=NNc2ccc(C(=N)N)cc2)cc1 [diminazene],,
,,N=C(N)NC(=O)c1nc(Cl)c(N)nc1N [amiloride],310 ± 180,1300 ± 2300

# Reference: PMC9822975, “Functional analysis in a model sea anemone reveals phylogenetic complexity and a role in cnidocyte discharge of DEG/ENaC ion channels” (Communications Biology, 2023)
